Source: US5506102A (priority 1993, dated 1996)
Entries after “also recorded” stand apart in the source; their conditions may differ.

Experiments:
human estrogen receptor [1] = assay: ER transcriptional activity on MMTV-ERE-LUC, CV-1 cells, ER co-expressed with PR-A; format: cell-based
Protocol: (§1) All values were normalized for transfection efficiency by simultaneous estimation of luciferase and β-galactocidase activities. The relative luciferase activity is calculated by dividing the normalized luciferase value at a given point by that obtained in the absence of transfected receptor or ligand. Data shown represent the mean +/- the average deviation from the mean of triplicate estimations.
(§2) Experimental protocols and data calculation are as described in FIG. 11. The experiment detailed above is representative of independent assays (N>3). Data shown represent the mean +/- the average deviation from the mean of triplicate estimations.
Vegeto et al., supra. Cells were plated into 96-well tissue culture plates. The vector DNA was introduced into the CV-1 cells using calcium phosphate coprecipitation as described herein. More specifically, 20 μg of DNA/ml of transfection buffer were used in each transfection. Each transfection mix included 0.5 μg of pRST7hER, 9.5 μg of MMTV-ERE-LUC, 5 μg of pCH110, (which contains the gene for β-galactosidase) as an internal control and 5 μg of PGEM4 DNA as a carrier. Depending on the experiment, 0.1 μg pSVhPR-A or pSVhPR-B and an amount of pSVXV2neo (Dr. Bert O'Malley, Baylor College of Medicine) to bring the total amount of DNA to 20 μg was added. The concentration of pXVhPR-A vector chosen was determined by performing the experiment at several different concentrations of vector, and then using that concentration that was optimal for transcriptional readout. The concentration of pSVhPR-B vector was chosen based upon the amount required to give an identical amount of immunoreactive PR-A and PR-B. After transfections using a Biomek 1000 automated laboratory workstation, the cells were incubated with the precipitate for 6 hours. Cells were washed with PBS and incubated for 40 hours with or without hormones as indicated. Cell extracts were prepared as previously described herein and assayed for luciferase (LUC) and β-galactosidase activities. The Normalized LUC activity was calculated by dividing the raw luciferase (×10^4) units for each point by the β-galactosidase activity [(OD415 nm ×10^5)/time min.] at that point.

human androgen receptor [2] = target: T1, human androgen receptor (Homo sapiens, UniProt P10275); assay: AR transcriptional activity on MMTV-LUC, CV-1 cells, AR co-expressed with PR-A; format: cell-based; conditions: AR plus PR-A, FIG. 10B
T1 sequence (P10275 1-920): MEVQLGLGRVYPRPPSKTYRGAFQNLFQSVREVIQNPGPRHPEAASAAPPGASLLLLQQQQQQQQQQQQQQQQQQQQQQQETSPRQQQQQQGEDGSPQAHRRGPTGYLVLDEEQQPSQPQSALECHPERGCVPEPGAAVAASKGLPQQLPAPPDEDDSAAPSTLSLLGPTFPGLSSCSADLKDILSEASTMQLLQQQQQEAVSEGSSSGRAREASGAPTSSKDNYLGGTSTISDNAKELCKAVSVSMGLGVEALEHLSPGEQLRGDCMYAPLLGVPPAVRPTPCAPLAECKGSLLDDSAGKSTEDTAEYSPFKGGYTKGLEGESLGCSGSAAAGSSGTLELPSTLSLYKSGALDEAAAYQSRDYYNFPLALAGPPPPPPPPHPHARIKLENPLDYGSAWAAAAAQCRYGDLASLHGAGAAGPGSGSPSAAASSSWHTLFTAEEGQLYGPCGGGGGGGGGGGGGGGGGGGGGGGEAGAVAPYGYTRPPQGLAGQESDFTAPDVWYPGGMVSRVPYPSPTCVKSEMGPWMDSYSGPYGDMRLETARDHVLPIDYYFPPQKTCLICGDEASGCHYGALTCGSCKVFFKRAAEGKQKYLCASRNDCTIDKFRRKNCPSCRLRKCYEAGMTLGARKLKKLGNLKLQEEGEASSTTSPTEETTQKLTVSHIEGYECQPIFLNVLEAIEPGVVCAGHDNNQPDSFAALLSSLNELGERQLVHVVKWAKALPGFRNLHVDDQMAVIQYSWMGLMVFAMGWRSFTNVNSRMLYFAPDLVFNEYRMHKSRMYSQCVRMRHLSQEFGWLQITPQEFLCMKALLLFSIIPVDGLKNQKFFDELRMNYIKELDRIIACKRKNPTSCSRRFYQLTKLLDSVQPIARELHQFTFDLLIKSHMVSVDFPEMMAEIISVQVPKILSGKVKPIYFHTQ
Protocol: (§3) FIGS. 10A-10B are a series of graphs showing CV-1 cells that were transiently transfected with an expression vector for the human androgen receptor (pRShAR) alone, or in combination with phPR-A together with 5 µg/ml of the MMTV-LUC reporter and 5 µg/ml of pCH110 as an internal control. […] The relative luciferase activity is calculated by dividing the normalized luciferase value at a given point by that obtained in the absence of transfected receptor or ligand. […] The data are presented as percent (%) activation, where 100% represents the maximal induction achieved by human androgen receptor at 10^ -8 M DHT. The experimental data represents mean values +/- the average deviation from the mean of quadruplicate estimations;
(§4) Cells were seeded in 12-well, 96-well or 10 cm tissue culture plates. […] 20 μg of DNA/ml of transfection buffer were used in each transfection reaction. In this mix, the concentration of the luciferase plasmids and that of the internal control plasmid pCH110 (Pharmacia, Inc.), which contains the gene for the β-galactosidase enzyme, remained constant ([…] of each plasmid DNA), while the receptor plasmid concentration varied as indicated for each experiment. […]

AR = conditions: stated without data; cited from earlier work
PR = conditions: cited from earlier work
[3] = test system: glucocorticoid receptor (GR); assay: GR transcriptional activity on MMTV-LUC, CV-1 cells, GR co-expressed with PR-A; format: cell-based
Protocol: (§5) Cells were seeded in 12-well, 96-well or 10 cm tissue culture plates. […] 20 μg of DNA/ml of transfection buffer were used in each transfection reaction. In this mix, the concentration of the luciferase plasmids and that of the internal control plasmid pCH110 (Pharmacia, Inc.), which contains the gene for the β-galactosidase enzyme, remained constant ([…] of each plasmid DNA), while the receptor plasmid concentration varied as indicated for each experiment. Different amounts of receptor parental plasmid, pSV2-neo (Dr. Bert O'Malley, Baylor College of Medicine, Houston, Tex.) was included to keep constant the total amount of the SV40 enhancer vectors. pGEM4 plasmid DNA (Promega Biotech, Madison, Wis.) was added to balance the total DNA concentration to 20 g/reaction. For the 96-well plate experiments, transfections were performed on a Biomek 1000 Automated Laboratory Workstation (Beckman Instruments, Fullerton, Calif.).
(§6) Cells were seeded 24 hours prior to transfection in the fiat-bottom tissue culture plates ([…]) in phenol red-free DMEM containing 10% FCS. […] Using calcium phosphate co-precipitation, DNA solution was added dropwise with vortexing into an equal volume of 2X HBS pH 6.9 (280 mM NaCl. 50 mM HEPES, 1.5 mM Na2 HPO4) and precipitates were allowed to form for 20 minutes. Cells were transfected ( […] of DNA mix/well) for 6 hours and then washed with phosphate-bufferedsaline (PBS) to remove the precipitate. Cells were incubated for an additional 24 hours in phenol red-free medium containing 10% charcoal-treated FCS, with or without hormones as indicated in the text. Cell extracts were prepared as described by Berger et al., Supra, and assayed for luciferase and β-galactosidase activities. All determinations were performed in triplicates in at least two independent experiments, and were normalized for transfection efficiency by using β-galactosidase as an internal control.

ER = ER transcriptional activity on MMTV-ERE-LUC in HepG2 and HS578T cells; format: cell-based; conditions: data not shown
human androgen receptor [4] = target: T1, human androgen receptor; assay: AR transcriptional activity on MMTV-LUC, CV-1 cells, AR alone; format: cell-based; conditions: FIG. 10
Protocol: as §3, §4

[5] = target: T2, glucocorticoid receptor (GR) (Homo sapiens, UniProt P04150)
T2 sequence (P04150 1-777): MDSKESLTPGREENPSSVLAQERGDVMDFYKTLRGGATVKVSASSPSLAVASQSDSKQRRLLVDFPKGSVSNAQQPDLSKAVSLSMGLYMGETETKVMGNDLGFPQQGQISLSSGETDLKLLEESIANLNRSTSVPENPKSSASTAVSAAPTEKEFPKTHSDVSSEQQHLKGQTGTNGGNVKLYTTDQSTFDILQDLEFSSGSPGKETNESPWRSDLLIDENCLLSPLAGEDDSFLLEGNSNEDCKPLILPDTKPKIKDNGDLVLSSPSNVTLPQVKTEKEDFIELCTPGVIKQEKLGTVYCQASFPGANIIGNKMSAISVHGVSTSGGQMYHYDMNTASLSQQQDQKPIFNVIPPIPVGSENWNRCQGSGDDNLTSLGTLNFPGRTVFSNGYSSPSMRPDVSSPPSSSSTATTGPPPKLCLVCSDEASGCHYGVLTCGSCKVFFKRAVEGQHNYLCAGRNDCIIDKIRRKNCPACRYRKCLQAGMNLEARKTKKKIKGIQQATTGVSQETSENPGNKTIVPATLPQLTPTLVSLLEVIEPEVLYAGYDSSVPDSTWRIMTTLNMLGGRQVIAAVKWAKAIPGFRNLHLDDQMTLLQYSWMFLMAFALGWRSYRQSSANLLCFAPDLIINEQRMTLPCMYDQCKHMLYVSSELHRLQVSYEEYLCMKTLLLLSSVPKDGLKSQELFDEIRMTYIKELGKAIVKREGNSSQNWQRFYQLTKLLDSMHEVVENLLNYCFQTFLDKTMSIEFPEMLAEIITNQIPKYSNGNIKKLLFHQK
Protocol: as §5, §6

human estrogen receptor [6] = target: T3, human estrogen receptor (Homo sapiens, UniProt P03372); assay: ER transcriptional activity on MMTV-ERE-LUC, CV-1 cells, ER co-expressed with PR-B; format: cell-based; conditions: FIG. 11B
T3 construct: expressed in transfected cells; host or cells: CV-1
T3 sequence (P03372 1-595): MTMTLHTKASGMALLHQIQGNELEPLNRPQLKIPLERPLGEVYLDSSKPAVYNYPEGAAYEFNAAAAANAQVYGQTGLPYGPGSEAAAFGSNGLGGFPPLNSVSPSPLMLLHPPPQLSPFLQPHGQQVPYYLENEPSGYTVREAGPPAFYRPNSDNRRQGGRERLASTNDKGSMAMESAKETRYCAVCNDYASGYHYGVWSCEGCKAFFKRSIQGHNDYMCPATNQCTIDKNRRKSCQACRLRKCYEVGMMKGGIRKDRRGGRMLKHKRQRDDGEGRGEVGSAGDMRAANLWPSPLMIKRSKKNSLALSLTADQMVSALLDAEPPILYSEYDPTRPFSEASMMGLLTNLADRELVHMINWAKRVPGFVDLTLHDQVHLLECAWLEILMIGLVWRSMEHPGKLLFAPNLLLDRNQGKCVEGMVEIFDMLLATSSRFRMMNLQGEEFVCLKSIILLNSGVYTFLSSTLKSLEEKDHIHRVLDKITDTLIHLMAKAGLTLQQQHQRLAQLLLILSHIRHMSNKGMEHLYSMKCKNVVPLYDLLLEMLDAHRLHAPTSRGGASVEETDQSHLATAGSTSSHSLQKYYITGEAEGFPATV
Protocol: as §1
(§7) Vegeto et al., supra. Cells were plated into 96-well tissue culture plates. The vector DNA was introduced into the CV-1 cells using calcium phosphate coprecipitation as described herein. More specifically, 20 μg of DNA/ml of transfection buffer were used in each transfection. Each transfection mix included 0.5 μg of pRST7hER, 9.5 μg of MMTV-ERE-LUC, 5 μg of pCH110, (which contains the gene for β-galactosidase) as an internal control and 5 μg of PGEM4 DNA as a carrier. […] The concentration of pXVhPR-A vector chosen was determined by performing the experiment at several different concentrations of vector, and then using that concentration that was optimal for transcriptional readout. […] The Normalized LUC activity was calculated by dividing the raw luciferase (×10^4) units for each point by the β-galactosidase activity [(OD415 nm ×10^5)/time min.] at that point.

human estrogen receptor [7] = target: T3, human estrogen receptor; assay: ER transcriptional activity on MMTV-ERE-LUC, CV-1 cells, ER alone; format: cell-based; conditions: 10^-7 M 17-β-estradiol, FIG. 11B
Protocol: as §1, §2
as §7, with “transfection.” for “transfection. Each transfection mix included 0.5 μg of pRST7hER, 9.5 μg of MMTV-ERE-LUC, 5 μg of pCH110, (which contains the gene for β-galactosidase) as an internal control and 5 μg of PGEM4 DNA as a carrier.”

CC(=O)O[C@]1(C(C)=O)CC[C@H]2[C@@H]3C[C@H](C)C4=CC(=O)CC[C@]4(C)[C@H]3CC[C@@]21C [medroxyprogesterone acetate, Medroxyprogesterone acetate]
anti-estrogen activity of PR agonists (human estrogen receptor [1]; PR-A co-expressed, 10^-7 M 17-β-estradiol, FIG. 13): considerably less effective

CN(C)c1ccc([C@H]2C[C@]3(C)[C@@H](CC[C@]3(O)CCCO)[C@@H]3CCC4=CC(=O)CCC4=C32)cc1 [ZK98299]
IC50 (human estrogen receptor [1]; 10^-7 M 17-β-estradiol, read-out: half maximal inhibition (IC50) of ER in the presence of hPR-A): 3 nM | efficacy compared to the pure anti-estrogen ICI-164,384 (human estrogen receptor [1]; PR-A co-expressed, 100% = 10^-7 M 17-β-estradiol + 10^-6 M ICI-164,384, FIG. 12): 70% | effect on DHT-induced AR activity in the presence of PR-A (human androgen receptor [2]): addition of PR-A to the cells increased this compound's sensitivity | affinity for AR (AR): low affinity for AR | effect on PR DNA binding (PR): retards DNA binding; also recorded: interferes with DNA binding | inhibition of GR function via PR-A ([3]; MMTV promoter, dexamethasone present, FIG. 8A): mediated an inhibition of GR function; also recorded: promotes PR-A repressor function | anti-estrogenic activity (ER; HS578T cells): both anti-progestins functioned as anti-estrogens | anti-estrogenic activity (ER; HepG2 cells): neither anti-progestin exhibited any anti-estrogenic activity | effect on DHT-induced AR activity (human androgen receptor [4]): minimal direct effects on AR transcriptional activity

C[C@@H]1C[C@H]2[C@@H]3CCC4=CC(=O)C=C[C@]4(C)[C@@]3(F)[C@@H](O)C[C@]2(C)[C@@]1(O)C(=O)CO [dexamethasone]
maximally activated GR (100% value) [5]: > 450 normalized response | maximal activity of GR (100% value) ([5]; cv-1 cells, 0.01 µM): > 450 fold normalized response | induction of MMTV promoter activity ([5]; cv-1 cells, 24 h, 0.1 µM): 450 fold | dexamethasone induction of GR activity, of control levels [3]: about 53%

CCCCN(C)C(=O)CCCCCCCCCC[C@@H]1Cc2cc(O)ccc2[C@H]2CC[C@]3(C)[C@@H](O)CC[C@H]3[C@H]12 [ICI-164,384]
effect of hPR-A co-expression on activity of ICI-164,384 (human estrogen receptor [1]; FIG. 11B): did not affect the activity | effect of hPR-B co-expression on activity of ICI-164,384 (human estrogen receptor [6]): did not affect the activity | inhibition of 17-β-estradiol induced ER transcriptional activation (human estrogen receptor [7]): can be inhibited by addition of the pure anti-estrogen ICI-164,384
